Results: ChEMBL document CHEMBL1151365, “The isolation and identification of several trichothecene mycotoxins from Fusarium heterosporum” (J Nat Prod, 1981)

Key:
Assay type in all cases: organism-based
Triticum aestivum [1] = assay: Toxicity in Triticum aestivum assessed as inhibition of coleoptiles growth at 0.1 mM; conditions: in vivo, 100 µM
Oryctolagus cuniculus = species: Oryctolagus cuniculus; assay: Dermal toxicity in rabbit skin; conditions: in vivo
Triticum aestivum [2] = assay: Toxicity in Triticum aestivum assessed as inhibition of coleoptiles growth at 0.01 mM; conditions: in vivo, 10 µM
Triticum aestivum [3] = assay: (§1) Toxicity in Triticum aestivum assessed as inhibition of coleoptiles growth at 1 mM; conditions: in vivo, 1000 µM
[4] = as §1; conditions: Triticum aestivum coleoptiles, read-out: Activity

SMILES | Activity (Triticum aestivum [1]) | ED50 (Oryctolagus cuniculus) [µg] | Activity (Triticum aestivum [2]) | Activity (Triticum aestivum [3]) | inhibition at 1000 µM [4] [%]
CC(=O)OC[C@]12C[C@H](OC(=O)CC(C)C)C(C)=C[C@H]1O[C@@H]1[C@H](O)[C@@H](OC(C)=O)[C@@]2(C)[C@]12CO2 [T-2 TOXIN] | Toxic | < 0.16 | Toxic | Toxic | 
CC(=O)OC[C@]12C[C@H](O)C(C)=C[C@H]1O[C@@H]1[C@H](O)[C@@H](O)[C@@]2(C)[C@]12CO2 |  | > 1.28 |  |  | 59
CC(=O)OC[C@]12C[C@H](OC(=O)CC(C)(C)O)C(C)=C[C@H]1O[C@@H]1[C@H](O)[C@@H](O)[C@@]2(C)[C@]12CO2 | Toxic | > 1.28 | Toxic | Toxic | 
CC(=O)OC[C@]12C[C@H](OC(=O)CC(C)C)C(C)=C[C@H]1O[C@@H]1[C@H](O)[C@@H](O)[C@@]2(C)[C@]12CO2 [HT-2 TOXIN] | Toxic | 0.16 | Toxic | Toxic | 
CC1=C[C@H]2O[C@@H]3[C@H](O)[C@@H](O)[C@](C)([C@@]2(CO)C[C@@H]1O)[C@]31CO1 |  | > 1.28 |  |  | 
CC1=C[C@H]2O[C@@H]3[C@H](O)[C@@H](O)[C@](C)([C@@]2(CO)C[C@@H]1OC(=O)CC(C)(C)O)[C@]31CO1 | Toxic | > 1.28 | Toxic | Toxic | 
